The values below are quoted from earlier work in patent US4146622A, “Aziridinyl quinone anti-transplanted tumor agents” (priority 1977, dated 1979).

The test system of the series is lymphoid leukemia L1210. The conditions noted are these: L1210 system, prior/literature; cited from earlier work.

“Also recorded” adds a separate entry of the source.

For the molecule `O=C1C(Cl)=C(N2CC2)C(=O)C(Cl)=C1N1CC1` [Compound 4, 2,5-dichloro-3,6-diaziridinyl-1,4-benzoquinone], the “antitumor activity, prior testing” value is “inactive”.
As for `COC1=C(Br)C(=O)C(OC)=C(Br)C1=O` [Compound 14, 2,5-dibromo-3,6-dimethoxy-1,4-benzoquinone], the “antitumor activity, prior testing” value was “inactive”.
For `NC1=C(Cl)C(=O)C(N)=C(Cl)C1=O` [Compound 19], the “antitumor activity, prior testing” value is “inactive”.
In the case of `CC(=O)NC1=C(Cl)C(=O)C(NC(C)=O)=C(Cl)C1=O` [Compound 20, 2,5-dichloro-3,5-acetylamino-1,4-benzoquinone], the “antitumor activity, prior testing” value was “inactive”.
Turning to `CC(=O)NC1=C(N2CC2)C(=O)C(NC(C)=O)=C(N2CC2)C1=O` [Compound 27], the “antitumor activity, prior testing” value is given as “active; also recorded: intraperitoneal (IP) leukemia L1210 activity”.
Consider `COC1=C(N2CC2)C(=O)C(OC)=C(N2CC2)C1=O` [Compound 28], for which the “antitumor activity, prior testing” value was “intraperitoneal (IP) leukemia L1210 activity”.
